Data reported in US11246907B2, “Immunosuppressive agents and their use in therapy” (Norwegian University of Science and Technology, priority 2013, dated 2022).
Ends that are not written are not given here.

Key:
IFN-β = IFN-β ELISA on supernatants of stimulated monocytes; format: cell-based, human; details: LPS- and polyIC-stimulated monocytes; 4 μM (donor 1: 6 μM), 4 h
Method: Measured cytokine levels were normalized to cytokine levels from monocytes stimulated with TLR ligand alone. A two fold or higher increase in cytokine level after TLR stimulation was defined as cytokine induction. […] Isolated monocytes were stimulated with 10 ng/ml LPS and 40 μg/ml polyIC alone and in combination with 4 μM ATX-101 for 4 h. […] DRAQS was used for nuclear staining. Bar, 5 μm.
Peripheral blood mononuclear cells were isolated from A+ buffy coats (Blood Bank, St. Olav's University Hospital, Trondheim, Norway) by density gradient centrifugation (Lymphoprep; Axis-Shield PoC, Oslo, Norway). Mononucleated cells were seeded at 4 million cells/ml in serum-free RPMI 1640 supplemented with glutamine and gentamicin. […]
Monocytes were stimulated as described above. IFN-β was measured in supernatants with the VeriKine-HSTMHuman IFN-β Serum ELISA kit (Pestka Biomedical Laboratories, Piscataway, N.J., USA) according to the manufacturer's instructions with the following adaptions: the amount of supernatant was doubled from 50 to 100 μl; sample buffer was reduced from 50 to 25 μl; and antibody solution was reduced from 50 to 25 μl (reducing assay diluent, keeping same volume of antibody concentrate and diluent additive). The OD was measured at 450 nm.

[1] = test system: Akt Ser473 phosphorylation; test: Western blot of Akt Ser473 phosphorylation in HaCaT cells; format: cell-based, human; details: 12 μM, 4 h; unstimulated and 2 μg/ml polyIC
Method: Protein levels were corrected for loading differences (β-tubulin) and normalized to untreated control cells. […] Bar, 5 μm.
The multiple myeloma cell lines JJN-3 (gift from J. Ball, University of Birmingham, United Kingdom) were grown in RPMI 1640 (Sigma-Aldrich, Schnelldorf, Germany) supplemented with 10% FCS, 2 mM glutamine (Sigma-Aldrich), 2.5 μg/ml amphotericin B (Sigma-Aldrich) and 100 μg/ml gentamicin (Invitrogen, Carlsbad, Calif., USA). HaCaT cells (spontaneously transformed keratinocytes) were cultured in DMEM (Sigma-Aldrich) containing FCS, glutamine, amphotericin B, and gentamicin. All cells were cultured at 37° C. in a humidified atmosphere of 5% CO2.
Mononucleated cells were seeded and stimulated as described above. JJN-3 cells were treated with ATX-101 (6 μM) for 4 h. HaCaT cells were treated with ATX-101 (12 μM), polylC (2 μg/ml), and LPS (100 ng/ml) for 4 h. […] The proteins were visualized with the Odyssey infrared imaging system (LI-COR) and quantified using Odyssey Image Studio V2. […]

[2] = test system: p70 S6 kinase Thr389 phosphorylation; test: Western blot of p70 S6 kinase Thr389 phosphorylation in JJN-3 cells; format: cell-based; details: 6 μM ATX-101, 4, 8, 24 h

Ac-MDRWLVKWKKKRKIRRRRRRRRRRR [ATX-101]
IFN-β secretion (IFN-β): decreased the IFN-β secretion
Akt phosphorylation in HaCaT cells [1]: reduced Akt phosphorylation in unstimulated and stimulated cells
phosphorylation of p70 S6 kinase [2]: decreased
